Reference: ChEMBL document CHEMBL4411300 (Eur J Med Chem, 2019)
pIC50: −log10 of the molar value. The source made the active and inactive calls. No cut-off for these calls is given here.

Experiments:
[1] = (§1) Cardiotoxicity in Balb/c mouse infected with Trypanosoma cruzi MHOM/Pe/2011/Arequipa DTU 5 trypomastigotes assessed as change in ratio of creatine kinase in muscle to brain at 20 mg/kg, po once daily for 5 consecutive days starting from day 10 post infection measured on day 127 post infection by biochemical analysis (reference value: 496 U/L); type: toxicity, organism-based; settings: in vivo
[2] = test system: Trypanosoma cruzi; experiment: Antitrypanosomal activity against Trypanosoma cruzi MHOM/Pe/2011/Arequipa DTU 5 epimastigotes assessed as change in mitochondrial membrane potential at IC25 after 72 hrs by Rho123 staining based flow cytometry relative to control; type: functional
[3] = Nephrotoxicity in Balb/c mouse infected with Trypanosoma cruzi MHOM/Pe/2011/Arequipa DTU 5 trypomastigotes assessed as serum uric acid level at 20 mg/kg, po once daily for 5 consecutive days starting from day 10 post infection measured on day 127 post infection (reference value: 4 mg/dl); type: toxicity, organism-based; settings: in vivo
[4] = (§2) Hepatotoxicity in Balb/c mouse infected with Trypanosoma cruzi MHOM/Pe/2011/Arequipa DTU 5 trypomastigotes assessed as increase in alkaline phosphatase level at 20 mg/kg, po once daily for 5 consecutive days starting from day 75 post infection measured on day 81 post infection relative to control; type: toxicity, organism-based; settings: in vivo
[5] = Nephrotoxicity in Balb/c mouse infected with Trypanosoma cruzi MHOM/Pe/2011/Arequipa DTU 5 trypomastigotes assessed as decrease in serum urea level at 20 mg/kg, po once daily for 5 consecutive days starting from day 75 post infection measured on day 81 post infection relative to control; type: toxicity, organism-based; design: scale not given: the % may be the effect or the level left; settings: in vivo
[6] = (§3) Hepatotoxicity in Balb/c mouse infected with Trypanosoma cruzi MHOM/Pe/2011/Arequipa DTU 5 trypomastigotes assessed as increase in ratio of serum AST to GOT level at 20 mg/kg, po once daily for 5 consecutive days starting from day 10 post infection measured on day 127 post infection by biochemical analysis relative to control; type: toxicity, organism-based; settings: in vivo
[7] = Nephrotoxicity in Balb/c mouse infected with Trypanosoma cruzi MHOM/Pe/2011/Arequipa DTU 5 trypomastigotes assessed as decrease in serum urea level at 20 mg/kg, po once daily for 5 consecutive days starting from day 10 post infection measured on day 16 post infection relative to control; type: toxicity, organism-based; design: scale not given: the % may be the effect or the level left; settings: in vivo
[8] = as §2, with “change” for “increase”, “127” for “81”, “(reference value: 149 U/L)” for “relative to control”; type: toxicity, organism-based; settings: in vivo
[9] = Hepatotoxicity in Balb/c mouse infected with Trypanosoma cruzi MHOM/Pe/2011/Arequipa DTU 5 trypomastigotes assessed as increase in total bilirubin level at 20 mg/kg, po once daily for 5 consecutive days starting from day 75 post infection measured on day 81 post infection relative to control; type: toxicity, organism-based; settings: in vivo
[10] = Selectivity index, ratio of IC50 for African green monkey Vero cells to IC50 for Trypanosoma cruzi MHOM/Pe/2011/Arequipa DTU 5 epimastigotes; type: toxicity; settings: read-out: Ratio IC50
[11] = Selectivity index, ratio of IC50 for African green monkey Vero cells to IC50 for Trypanosoma cruzi TINF/CH/1956/Tulahuen DTU 6 amastigotes infected in African green monkey Vero cells; type: toxicity; settings: read-out: Ratio IC50
[12] = Nephrotoxicity in Balb/c mouse infected with Trypanosoma cruzi MHOM/Pe/2011/Arequipa DTU 5 trypomastigotes assessed as decrease in serum urea level at 20 mg/kg, po once daily for 5 consecutive days starting from day 75 post infection measured on day 127 post infection relative to control; type: toxicity, organism-based; design: scale not given: the % may be the effect or the level left; settings: in vivo
[13] = Hepatotoxicity in Balb/c mouse infected with Trypanosoma cruzi MHOM/Pe/2011/Arequipa DTU 5 trypomastigotes assessed as increase in alkaline phosphatase level at 20 mg/kg, po once daily for 5 consecutive days starting from day 10 post infection measured on day 16 post infection relative to control; type: toxicity, organism-based; settings: in vivo
[14] = Nephrotoxicity in Balb/c mouse infected with Trypanosoma cruzi MHOM/Pe/2011/Arequipa DTU 5 trypomastigotes assessed as decrease in serum uric acid level at 20 mg/kg, po once daily for 5 consecutive days starting from day 10 post infection measured on day 16 post infection relative to control; type: toxicity, organism-based; design: scale not given: the % may be the effect or the level left; settings: in vivo
[15] = as §3, with “total bilirubin” for “ratio of serum AST to GOT”; type: toxicity, organism-based; settings: in vivo
[16] = as §1, with “75” for “10”, “infection” for “infection by biochemical analysis”, “538” for “496”; type: toxicity, organism-based; settings: in vivo
[17] = test system: Trypanosoma cruzi; experiment: Induction of […] Trypanosoma cruzi MHOM/Pe/2011/Arequipa DTU 5 epimastigotes assessed as inhibition of DNA and RNA levels at IC25 after 72 hrs by acridine orange staining based flow cytometry relative to control; type: functional
[18] = test system: Trypanosoma cruzi; experiment: Trypanocidal activity against Trypanosoma cruzi MHOM/Pe/2011/Arequipa DTU 5 amastigotes infected in African green monkey Vero cells after 72 hrs by Giemsa-staining based microscopic assay; type: functional, organism-based; settings: MHOM/Pe/2011/Arequipa DTU 5, Vero
[19] = as §1, with “serum LDH level” for “ratio of creatine kinase in muscle to brain”, “2761” for “496”; type: toxicity, organism-based; settings: in vivo
[20] = test system: Trypanosoma cruzi; experiment: Antitrypanosomal activity against Trypanosoma cruzi MHOM/Pe/2011/Arequipa DTU 5 trypomastigotes infected in Balb/c mouse assessed as reduction in Ig-G level in serum at 20 mg/kg, po once daily for 5 consecutive days starting from day 75 post infection measured on day 81 post infection by ELISA; type: functional, organism-based
[21] = Hepatotoxicity in Balb/c mouse infected with Trypanosoma cruzi MHOM/Pe/2011/Arequipa DTU 5 trypomastigotes assessed as increase in total bilirubin level at 20 mg/kg, po once daily for 5 consecutive days starting from day 10 post infection measured on day 16 post infection relative to control; type: toxicity, organism-based; settings: in vivo
[22] = Nephrotoxicity in Balb/c mouse infected with Trypanosoma cruzi MHOM/Pe/2011/Arequipa DTU 5 trypomastigotes assessed as decrease in serum uric acid level at 20 mg/kg, po once daily for 5 consecutive days starting from day 75 post infection measured on day 81 post infection relative to control; type: toxicity, organism-based; design: scale not given: the % may be the effect or the level left; settings: in vivo
[23] = Toxicity in Balb/c mouse assessed as reduction in body mass at 20 mg/kg, po once daily for 5 consecutive days starting from day 75 post infection relative to control; type: organism-based; design: scale not given: the % may be the effect or the level left; settings: in vivo
[24] = test system: Trypanosoma cruzi; experiment: Antitrypanosomal activity against Trypanosoma cruzi MHOM/Pe/2011/Arequipa DTU 5 trypomastigotes infected in Balb/c mouse assessed as reduction in splenomegaly at 20 mg/kg, po once daily for 5 consecutive days starting from day 75 post infection measured on day 127 post infection; type: functional, organism-based
[25] = test system: Trypanosoma cruzi; experiment: Antitrypanosomal activity against Trypanosoma cruzi MHOM/Pe/2011/Arequipa DTU 5 trypomastigotes infected in Balb/c mouse assessed as reduction in splenomegaly at 20 mg/kg, po once daily for 5 consecutive days starting from day 10 post infection measured on day 127 post infection; type: functional, organism-based
[26] = (§4) Cardiotoxicity in Balb/c mouse infected with Trypanosoma cruzi MHOM/Pe/2011/Arequipa DTU 5 trypomastigotes assessed as decrease in serum LDH level at 20 mg/kg, po once daily for 5 consecutive days starting from day 75 post infection measured on day 81 post infection relative to control; type: toxicity, organism-based; design: scale not given: the % may be the effect or the level left; settings: in vivo
[27] = as §3, with “16” for “127”, “infection” for “infection by biochemical analysis”; type: toxicity, organism-based; settings: in vivo
[28] = as §4, with “ratio of creatine kinase in muscle to brain” for “serum LDH level”; type: toxicity, organism-based; design: scale not given: the % may be the effect or the level left; settings: in vivo

SMILES | Activity [1] | Activity [2] | Activity [3] | Activity [4] | Activity [5] | Activity [6] | Activity [7] | Activity [8] | Activity [9] | Activity [12] | Activity [13] | Activity [14] | Activity [15] | Activity [16] | inhibition (INH) [17] | Activity [19] | Activity [21] | Activity [22] | Activity [24] | Activity [25] | also measured
Cl.Cl.Cl.Cl.Cl.Cl.c1ccc2nc(CNCCN(CCNCc3ccc4ccccc4n3)CCNCc3ccc4ccccc4n3)ccc2c1 | 496 U/L | -73.6% | 4 mg/dL | <= 20% | <= 10% | <= 10% | <= 10% | 149 U/L | <= 30% | <= 10% | <= 10% | <= 10% | <= 10% | 538 U/L | 56.7% | 2761 U/L | <= 30% | <= 10% | Active | Active | selectivity ratio [10]: 110; selectivity ratio [11]: 707; pIC50 [18]: 5.62; Activity [20]: inactive; Activity [23]: < 10%
O=C(Cn1ccnc1[N+](=O)[O-])NCc1ccccc1 [BENZNIDAZOLE] | 496 U/L | -35.4% | 4 mg/dL | > 40% | <= 10% | > 40% | <= 10% | – | <= 30% | <= 10% | <= 20% | <= 10% | <= 10% | 538 U/L | 22.4% | 2761 U/L | <= 20% | <= 10% | Active | Active | Activity [26]: <= 10%; Activity [27]: > 40%; Activity [28]: <= 10%
Cl.Cl.Cl.NCCN(CCN)CCNCc1ccc2c(c1)Cc1ccccc1-2 | 496 U/L | 7.6% | 4 mg/dL | – | <= 10% | <= 30% | <= 10% | 149 U/L | – | <= 10% | <= 20% | <= 10% | <= 10% | 538 U/L | 18.3% | 2761 U/L | <= 30% | <= 10% | Active | Active | Activity [26]: <= 10%; Activity [27]: > 40%; selectivity ratio [10]: 66.3; selectivity ratio [11]: 117; Activity [28]: <= 10%; pIC50 [18]: 5.32; Activity [20]: inactive; Activity [23]: < 10%
